Numbered stars: 1 amine (or outer) side, 2 acyl side, 3 side chain; on linkers, the order of the positions; unused ones are H or OH. Bridge positions count the residues as written; N and C are the ends. Square brackets hold non-standard residues; d marks the D form. Peptide text beside a SMILES is read from it. * marks the point of attachment. ξ: configuration not given here. Phe(4-(4-F-Ph)) = N[C@@H](Cc1ccc(-c2ccc(F)cc2)cc1)C(=O)O; Phe(4-COOH) = N[C@@H](Cc1ccc(C(=O)O)cc1)C(=O)O; X23 = O=C([C@H](Cc1cc2ccccc2cn1)N[*:1])[*:2]; Bip = N[C@@H](Cc1ccc(-c2ccccc2)cc1)C(=O)O; Phe(3-Me) = Cc1cccc(C[C@H](N)C(=O)O)c1; Val(3-OH) = CC(C)(O)[C@H](N)C(=O)O; 4Pal = N[C@@H](Cc1ccncc1)C(=O)O; Cha = N[C@@H](CC1CCCCC1)C(=O)O; Cit = NC(=O)NCCC[C@H](N)C(=O)O; Thr(3ξ) = CC(O)[C@H](N)C(=O)O; NMeNle = CCCC[C@H](NC)C(=O)O; NMeS = CN[C@@H](CO)C(=O)O; Carboxymethyl = O=C(O)C*; NMeA = CN[C@@H](C)C(=O)O; Nle = CCCC[C@H](N)C(=O)O; Orn = NCCC[C@H](N)C(=O)O; Pra = C#CC[C@H](N)C(=O)O; Dab = NCC[C@H](N)C(=O)O; Dap = NC[C@H](N)C(=O)O
target: T1, PE-labeled human PD-L1-Ig binding to Jurkat cell line over-expressing human PD-1 (Jurkat-PD-1) (Homo sapiens, UniProt Q15116); assay: Jurkat-PD-1 Cell Binding High-Content Screening Assay (CBA): Method 1; details: Jurkat-hPD-1 cells, PE-labeled PD-L1-Ig 20 nM final; read-out: Jurkat HPDL1 PD1 IC50 (uM) (Method 1)
T1 construct: expressed in transfected cells; host or cells: Jurkat
T1 sequence (Q15116 25-288): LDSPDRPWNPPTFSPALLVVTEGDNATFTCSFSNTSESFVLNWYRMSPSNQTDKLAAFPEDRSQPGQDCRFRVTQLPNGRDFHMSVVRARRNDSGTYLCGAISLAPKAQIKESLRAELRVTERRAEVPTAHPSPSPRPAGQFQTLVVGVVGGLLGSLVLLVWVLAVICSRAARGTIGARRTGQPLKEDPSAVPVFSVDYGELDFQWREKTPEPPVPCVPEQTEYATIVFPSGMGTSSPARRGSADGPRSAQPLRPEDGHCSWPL

Going from `CC(C)C[C@@H]1NC(=O)[C@H](CCCCN)NC(=O)[C@@H](CC(C)C)NC(=O)[C@H](C)N(C)C(=O)[C@H](CCCNC(=N)N)NC(=O)[C@H](Cc2ccc(-c3ccccc3)cc2)NC(=O)[C@H](C(C)C)NC(=O)[C@H](Cc2c[nH]c3ccccc23)NC(=O)[C@H](CC(=O)O)NC(=O)[C@H](Cc2ccc(O)cc2)NC(=O)[C@H](CC(N)=O)NC(=O)CSC[C@@H](C(=O)N[C@@H](C)C(N)=O)NC(=O)[C@H]([C@@H](C)O)NC(=O)[C@H](C(C)C)NC1=O` [Compound 1269] ({CH2CO}-NYDWV[Bip]R[NMeA][dL]KLVTCA-NH2; thioether N-14) to `CC(C)C[C@@H]1NC(=O)[C@H](CCN)NC(=O)[C@@H](CC(C)C)NC(=O)[C@H](C)N(C)C(=O)[C@H](CCCNC(=N)N)NC(=O)[C@H](Cc2ccc(-c3ccc(F)cc3)cc2)NC(=O)[C@H](C(C)C)NC(=O)[C@H](Cc2c[nH]c3ccccc23)NC(=O)[C@H](CC(=O)O)NC(=O)[C@H](Cc2ccc(O)cc2)NC(=O)[C@H](CC(N)=O)NC(=O)CSC[C@@H](C(=O)N[C@@H](C)C(N)=O)NC(=O)[C@H]([C@@H](C)O)NC(=O)[C@H](C(C)C)NC1=O` [Compound 1229] ({CH2CO}-NYDWV[Phe(4-(4-F-Ph))]R[NMeA][dL][Dab]LVTCA-NH2; thioether N-14), the IC50 rises from 0.03 µM to 0.13 µM (4.3-fold). The first is the more potent here.

First: Cc1cccc(C[C@@H]2NC(=O)[C@H](CC(=O)O)NC(=O)[C@H](Cc3ccncc3)NC(=O)[C@H](CN)NC(=O)CSC[C@@H](C(=O)N[C@@H](C)C(N)=O)NC(=O)[C@H]([C@@H](C)O)NC(=O)[C@H](C(C)C)NC(=O)[C@H](CC(C)C)NC(=O)[C@H](CCN)NC(=O)[C@@H](CC(C)C)NC(=O)[C@H](C)N(C)C(=O)[C@H](CCCNC(N)=O)NC(=O)[C@H](Cc3ccc(-c4ccccc4)cc3)NC(=O)[C@H](C(C)C)NC2=O)c1 [Compound 1546] ({CH2CO}-[Dap][4Pal]D[Phe(3-Me)]V[Bip][Cit][NMeA][dL][Dab]LVTCA-NH2; thioether N-14)
Second: CC(C)C[C@@H]1NC(=O)[C@H](CCN)NC(=O)[C@@H](CC(C)C)NC(=O)[C@H](C)N(C)C(=O)[C@H](CCCNC(=N)N)NC(=O)[C@H](Cc2ccc(-c3ccccc3)cc2)NC(=O)[C@H](C(C)C)NC(=O)[C@H](Cc2c[nH]c3ccccc23)NC(=O)[C@H](CC(=O)O)NC(=O)[C@H](Cc2cnc[nH]2)NC(=O)[C@H](Cc2ccccc2)NC(=O)CSC[C@@H](C(=O)N[C@@H](C)C(N)=O)NC(=O)[C@H]([C@@H](C)O)NC(=O)[C@H](C(C)C)NC1=O [Compound 1130] ({CH2CO}-FHDWV[Bip]R[NMeA][dL][Dab]LVTCA-NH2; thioether N-14)
The IC50 of the first is 9-fold lower: 0.02 µM for the first, 0.18 µM for the second.

`CCCC[C@H]1C(=O)N[C@H](C)C(=O)N[C@@H](CCN)C(=O)N[C@@H](CC2CCCCC2)C(=O)N[C@@H](C(C)C)C(=O)N[C@@H](CO)C(=O)N[C@H](C(=O)N[C@@H](CC(N)=O)C(N)=O)CSCC(=O)N[C@@H](Cc2ccncc2)C(=O)N[C@@H](Cc2ccc(C(=O)O)cc2)C(=O)N[C@@H](CC(=O)O)C(=O)N[C@@H](Cc2c[nH]c3ccccc23)C(=O)N[C@@H](C(C)C)C(=O)N[C@@H](Cc2ccc(-c3ccccc3)cc2)C(=O)N[C@@H](CCCN)C(=O)N1C` [Compound 2090] ({CH2CO}-[4Pal][Phe(4-COOH)]DWV[Bip][Orn][NMeNle][dA][Dab][Cha]VSCN-NH2; thioether N-14) and `CCCC[C@@H]1NC(=O)[C@H](CC(N)=O)NC(=O)[C@@H](C)NC(=O)[C@H](C)N(C)C(=O)[C@H](C(C)C)NC(=O)[C@H](Cc2ccc(-c3ccccc3)cc2)NC(=O)[C@H](CC(C)C)NC(=O)[C@H](Cc2c[nH]c3ccccc23)NC(=O)[C@H](CC(=O)O)NC(=O)[C@H](Cc2ccc(O)cc2)NC(=O)[C@H](Cc2ccccc2)NC(=O)CSC[C@@H](C(=O)N[C@@H](C)C(N)=O)NC(=O)[C@H]([C@@H](C)O)NC(=O)[C@H](CCCCN)NC1=O` [Compound 1790] ({CH2CO}-FYDWL[Bip]V[NMeA][dA]N[Nle]KTCA-NH2; thioether N-14) are within 1.5-fold of each other in IC50: 0.14 µM for the first, 0.13 µM for the second.

`CC(C)C[C@@H]1NC(=O)[C@H](CC(N)=O)NC(=O)[C@@H](CC(C)C)NC(=O)[C@H](C)N(C)C(=O)[C@H](CCC(=O)O)NC(=O)[C@H](Cc2ccc(-c3ccccc3)cc2)NC(=O)[C@H](C(C)C)NC(=O)[C@H](Cc2c[nH]c3ccccc23)NC(=O)[C@H](CC(=O)O)NC(=O)[C@H](Cc2ccc(O)cc2)NC(=O)[C@H](Cc2ccncc2)NC(=O)CSC[C@@H](C(N)=O)NC(=O)[C@H]([C@@H](C)O)NC(=O)[C@H](C(C)C)NC1=O` [Compound 1631] ({CH2CO}-[4Pal]YDWV[Bip]E[NMeA][dL]NLVTC-NH2; thioether N-14) and `CC(C)C[C@@H]1NC(=O)[C@H](CCCCN)NC(=O)[C@@H](CC(C)C)NC(=O)[C@H](C)N(C)C(=O)[C@H](Cc2cnc[nH]2)NC(=O)[C@H](Cc2ccc(-c3ccccc3)cc2)NC(=O)[C@H](C(C)C)NC(=O)[C@H](Cc2c[nH]c3ccccc23)NC(=O)[C@H](CC(=O)O)NC(=O)[C@H](Cc2ccc(O)cc2)NC(=O)[C@H](CC(N)=O)NC(=O)CSC[C@@H](C(=O)N[C@@H](C)C(N)=O)NC(=O)[C@H]([C@@H](C)O)NC(=O)[C@H](C(C)C)NC1=O` [Compound 1481] ({CH2CO}-NYDWV[Bip]H[NMeA][dL]KLVTCA-NH2; thioether N-14) are within 1.5-fold of each other in IC50: 0.11 µM for the first, 0.12 µM for the second.

`CC(C)C[C@@H]1NC(=O)[C@H](CCN)NC(=O)[C@@H](CC(C)C)NC(=O)[C@H](C)N(C)C(=O)[C@H](CCCNC(N)=O)NC(=O)[C@H](Cc2ccc(-c3ccccc3)cc2)NC(=O)[C@H](C(C)C)NC(=O)[C@H](Cc2c[nH]c3ccccc23)NC(=O)[C@H](CC(=O)O)NC(=O)[C@H](Cc2ccc(O)cc2)NC(=O)[C@H](Cc2cc3ccccc3cn2)NC(=O)CSC[C@@H](C(=O)N[C@@H](C)C(N)=O)NC(=O)[C@H](C(C)O)NC(=O)[C@H](C(C)C)NC1=O` (stereo partly drawn) [Compound 2035] ({CH2CO}-[X23]YDWV[Bip][Cit][NMeA][dL][Dab]LV[Thr(3ξ)]CA-NH2; thioether N-14) and `CC(C)C[C@@H]1NC(=O)[C@H](Cc2c[nH]c3ccccc23)NC(=O)[C@H](CC(=O)O)NC(=O)[C@H](Cc2ccc(O)cc2)NC(=O)[C@H](CC(N)=O)NC(=O)CSC[C@@H](C(=O)N[C@@H](C)C(N)=O)NC(=O)[C@H](CO)NC(=O)[C@H](C(C)C)NC(=O)[C@H](CC(C)C)NC(=O)[C@H](CCN)NC(=O)[C@@H](C)NC(=O)[C@H](C)N(C)C(=O)[C@H](CCCNC(=N)N)NC(=O)[C@H](Cc2ccc(-c3ccccc3)cc2)NC1=O` [Compound 1758] ({CH2CO}-NYDWL[Bip]R[NMeA][dA][Dab]LVSCA-NH2; thioether N-14) are within 1.5-fold of each other in IC50: 0.04 µM for the first, 0.03 µM for the second.

Compared with `CC(C)C[C@@H]1NC(=O)[C@H](CCN)NC(=O)[C@@H](CC(C)C)NC(=O)[C@H](C)N(C)C(=O)[C@H](CCCNC(=N)N)NC(=O)[C@H](Cc2ccc(-c3ccccc3)cc2)NC(=O)[C@H](C(C)C)NC(=O)[C@H](Cc2c[nH]c3ccccc23)NC(=O)[C@H](CC(=O)O)NC(=O)[C@H](Cc2ccc(O)cc2)NC(=O)[C@H](CC(N)=O)NC(=O)CSC[C@@H](C(=O)NCC(N)=O)NC(=O)[C@H](CO)NC(=O)[C@H](C(C)C)NC1=O` [Compound 1247] ({CH2CO}-NYDWV[Bip]R[NMeA][dL][Dab]LVSCG-NH2; thioether N-14), `CC(C)C[C@@H]1NC(=O)[C@H](CCN)NC(=O)[C@@H](CC(C)C)NC(=O)[C@H](CO)N(C)C(=O)[C@H](C(C)C)NC(=O)[C@H](Cc2ccc(-c3ccccc3)cc2)NC(=O)[C@H](C(C)C)NC(=O)[C@H](Cc2c[nH]c3ccccc23)NC(=O)[C@H](CC(=O)O)NC(=O)[C@H](Cc2ccc(O)cc2)NC(=O)[C@H](CC(N)=O)NC(=O)CSC[C@@H](C(=O)N[C@@H](C)C(N)=O)NC(=O)[C@H]([C@@H](C)O)NC(=O)[C@H](C(C)C)NC1=O` [Compound 1370] ({CH2CO}-NYDWV[Bip]V[NMeS][dL][Dab]LVTCA-NH2; thioether N-14) is 6-fold lower in IC50: 0.06 µM for the first, 0.01 µM for the second. The second is the more potent here.

`CC(=O)NCCCC[C@@H]1NC(=O)[C@H](Cc2ccc(-c3ccccc3)cc2)NC(=O)[C@H](Cc2ccc(O)cc2)NC(=O)[C@H](Cc2cccc(C)c2)NC(=O)[C@H](CC(=O)O)NC(=O)[C@H](Cc2ccc(OCC(=O)O)cc2)NC(=O)[C@H](C(C)O)NC(=O)CSC[C@@H](C(=O)N[C@@H](CO)C(N)=O)NC(=O)[C@H](C(C)O)NC(=O)[C@H](C(C)C)NC(=O)[C@H](CC2CCCCC2)NC(=O)[C@H](CCN)NC(=O)[C@@H](CC(C)C)NC(=O)[C@H](C)N(C)C1=O` (stereo partly drawn) [Compound 2119] ({CH2CO}-[Thr(3ξ)]Y(Carboxymethyl)D[Phe(3-Me)]Y[Bip]K(Ac)[NMeA][dL][Dab][Cha]V[Thr(3ξ)]CS-NH2; thioether N-14) and `CC(C)C[C@@H]1NC(=O)[C@H](Cc2c[nH]c3ccccc23)NC(=O)[C@H](CC(=O)O)NC(=O)[C@H](Cc2ccc(C(=O)O)cc2)NC(=O)[C@H](Cc2ccc(OCC(=O)O)cc2)NC(=O)CSC[C@@H](C(=O)N[C@H](C)C(N)=O)NC(=O)[C@H](CO)NC(=O)[C@H](C(C)(C)O)NC(=O)[C@H](CC2CCCCC2)NC(=O)[C@H](CCN)NC(=O)[C@@H](CC(C)C)NC(=O)[C@H](C)N(C)C(=O)[C@H](C(C)(C)O)NC(=O)[C@H](Cc2ccc(-c3ccccc3)cc2)NC1=O` [Compound 1714] ({CH2CO}-Y(Carboxymethyl)[Phe(4-COOH)]DWL[Bip][Val(3-OH)][NMeA][dL][Dab][Cha][Val(3-OH)]SC[dA]-NH2; thioether N-14) are the same in IC50: 0.02 µM for the first, 0.02 µM for the second.

For `C#CC[C@H](NC(=O)[C@@H](C)NC(=O)[C@@H]1CSCC(=O)N[C@@H](Cc2c[nH]cn2)C(=O)N[C@@H](Cc2ccc(OCC(=O)O)cc2)C(=O)N[C@@H](CC(=O)O)C(=O)N[C@@H](Cc2c[nH]c3ccccc23)C(=O)N[C@@H](C(C)C)C(=O)N[C@@H](Cc2ccc(-c3ccccc3)cc2)C(=O)N[C@@H](C(C)C)C(=O)N(C)[C@@H](C)C(=O)N[C@H](CC(C)C)C(=O)N[C@@H](CCN)C(=O)N[C@@H](CC2CCCCC2)C(=O)N[C@@H](C(C)(C)O)C(=O)N[C@@H](CO)C(=O)N1)C(=O)O` [Compound 1943] ({CH2CO}-HY(Carboxymethyl)DWV[Bip]V[NMeA][dL][Dab][Cha][Val(3-OH)]SC[dA][Pra]-OH; thioether N-14), the IC50 was 0.01 µM.
